Measured values from patent US12037583B2, “Compositions and methods for immunooncology” (Novartis AG, priority 2015, dated 2024).

Test system: CIITA
Test: NGS editing and frameshift edit of CIITA by dgRNA in HEK293 cells expressing Cas9
Format: cell-based, human
Settings: HEK293 cells stably expressing Cas9, dgRNA to CIITA; for Avg. % Edit: N = 3; for Avg. % FS: frameshift edit
Description: Editing of CIITA with dgRNAs targeted to the CIITA gene were assayed in HEK293 cells engineered to express Cas9, as described above in Example 1.

Substance	Avg. % Edit [%]	Avg. % FS [%]
CR002973 (guide CAUCGCUGUUAAGAAGCUCC; targeting domain within dual guide RNA, chemistry not given here, further chemistry not given here; listed as Homo sapiens)	30.60	23.55
CR002974 (guide AGAAGUGGUAGAGGCACAGG; targeting domain within dual guide RNA, chemistry not given here, further chemistry not given here; listed as Homo sapiens)	8.99	6.92
CR002975 (guide UAGAAGUGGUAGAGGCACAG; targeting domain within dual guide RNA, chemistry not given here, further chemistry not given here; listed as Homo sapiens)	19.31	15.82
CR002977 (guide CAUAGAAGUGGUAGAGGCAC; targeting domain within dual guide RNA, chemistry not given here, further chemistry not given here; listed as Homo sapiens)	19.11	12.99
CR002979 (guide CUACCACUUCUAUGACCAGA; targeting domain within dual guide RNA, chemistry not given here, further chemistry not given here; listed as Homo sapiens)	28.91	23.07
CR002981 (guide CUUCUAUGACCAGAUGGACC; targeting domain within dual guide RNA, chemistry not given here, further chemistry not given here; listed as Homo sapiens)	36.28	29.98
CR002982 (guide UAUGACCAGAUGGACCUGGC; targeting domain within dual guide RNA, chemistry not given here, further chemistry not given here; listed as Homo sapiens)	10.45	9.05
CR002983 (guide CUUCUCCAGCCAGGUCCAUC; targeting domain within dual guide RNA, chemistry not given here, further chemistry not given here; listed as Homo sapiens)	35.90	33.83
CR002985 (guide CAGUUGAUGGUGUCUGUGUC; targeting domain within dual guide RNA, chemistry not given here, further chemistry not given here; listed as Homo sapiens)	32.99	29.52
CR002986 (guide GCAGUUGAUGGUGUCUGUGU; targeting domain within dual guide RNA, chemistry not given here, further chemistry not given here; listed as Homo sapiens)	1.77	1.48
CR002989 (guide CACACAACAGCCUGCUGAAC; targeting domain within dual guide RNA, chemistry not given here, further chemistry not given here; listed as Homo sapiens)	27.38	8.45
CR002996 (guide AGGUGCUUCCUCACCGAUAU; targeting domain within dual guide RNA, chemistry not given here, further chemistry not given here; listed as Homo sapiens)	23.91	17.83
CR002998 (guide GGGAGUCCUGGAAGACAUAC; targeting domain within dual guide RNA, chemistry not given here, further chemistry not given here; listed as Homo sapiens)	4.95	4.84
CR002999 (guide UGUCUUCCAGGACUCCCAGC; targeting domain within dual guide RNA, chemistry not given here, further chemistry not given here; listed as Homo sapiens)	23.50	18.58
CR003000 (guide CUUCCAGGACUCCCAGCUGG; targeting domain within dual guide RNA, chemistry not given here, further chemistry not given here; listed as Homo sapiens)	12.83	10.53
CR003002 (guide GGCCCUCCAGCUGGGAGUCC; targeting domain within dual guide RNA, chemistry not given here, further chemistry not given here; listed as Homo sapiens)	11.85	9.78
CR003003 (guide CUUGCUCAGGCCCUCCAGCU; targeting domain within dual guide RNA, chemistry not given here, further chemistry not given here; listed as Homo sapiens)	35.07	27.91

Substance	Avg. % Edit [%]	Avg. % FS [%]
CR003004 (guide CCUUGCUCAGGCCCUCCAGC; targeting domain within dual guide RNA, chemistry not given here, further chemistry not given here; listed as Homo sapiens)	19.43	15.63
CR003005 (guide CCAGCUGGAGGGCCUGAGCA; targeting domain within dual guide RNA, chemistry not given here, further chemistry not given here; listed as Homo sapiens)	21.11	18.08
CR003006 (guide UACUGAAAAUGUCCUUGCUC; targeting domain within dual guide RNA, chemistry not given here, further chemistry not given here; listed as Homo sapiens)	19.46	14.66
CR003008 (guide CUCUCACCGAUCACUUCAUC; targeting domain within dual guide RNA, chemistry not given here, further chemistry not given here; listed as Homo sapiens)	15.30	10.91
CR003010 (guide AUGGAGAUGCCAGCAGAAGU; targeting domain within dual guide RNA, chemistry not given here, further chemistry not given here; listed as Homo sapiens)	25.45	14.37
CR003012 (guide CUUUUCUGCCCAACUUCUGC; targeting domain within dual guide RNA, chemistry not given here, further chemistry not given here; listed as Homo sapiens)	10.67	7.51
CR003014 (guide GGUCUGCCGGAAGCUCCUCU; targeting domain within dual guide RNA, chemistry not given here, further chemistry not given here; listed as Homo sapiens)	32.51	26.93
CR003015 (guide AGGUCUGCCGGAAGCUCCUC; targeting domain within dual guide RNA, chemistry not given here, further chemistry not given here; listed as Homo sapiens)	27.40	24.05
CR003016 (guide UUCCGGCAGACCUGAAGCAC; targeting domain within dual guide RNA, chemistry not given here, further chemistry not given here; listed as Homo sapiens)	17.86	13.55
CR003017 (guide UUCCAGUGCUUCAGGUCUGC; targeting domain within dual guide RNA, chemistry not given here, further chemistry not given here; listed as Homo sapiens)	21.90	15.22
CR003018 (guide GAGCCCCCCACUGUGGUGAC; targeting domain within dual guide RNA, chemistry not given here, further chemistry not given here; listed as Homo sapiens)	27.72	26.54
CR003019 (guide CUGCCAGUCACCACAGUGGG; targeting domain within dual guide RNA, chemistry not given here, further chemistry not given here; listed as Homo sapiens)	11.80	9.74
CR003020 (guide ACUGCCAGUCACCACAGUGG; targeting domain within dual guide RNA, chemistry not given here, further chemistry not given here; listed as Homo sapiens)	23.67	16.44
CR003022 (guide AGACUGCCAGUCACCACAGU; targeting domain within dual guide RNA, chemistry not given here, further chemistry not given here; listed as Homo sapiens)	23.73	17.96
CR003023 (guide GAGACUGCCAGUCACCACAG; targeting domain within dual guide RNA, chemistry not given here, further chemistry not given here; listed as Homo sapiens)	29.38	16.83
CR003024 (guide GGUGACUGGCAGUCUCCUAG; targeting domain within dual guide RNA, chemistry not given here, further chemistry not given here; listed as Homo sapiens)	20.40	16.33
